Data on 49 molecules can be found in US9051342B2 (priority 2004, dated 2015).

The melting point is the temperature, or range, at which the solid turns liquid. Turning to `O=C(O)c1cccc(-c2ccn(-c3ccc(Cl)cc3)c2)c1` [Compound 155, 3-[1-(4-Chloro-phenyl)-1H-pyrrol-3-yl]-benzoic acid], the melting point lay within 211 to 213 °C.
The same measure for `Cc1ccc(-n2ccc(-c3cccc(C(=O)O)c3)c2)cc1` [Compound 156, 3-(1-p-Tolyl-1H-pyrrol-3-yl)-benzoic acid]: 178 to 181 °C.
`O=C(O)c1ccc(-n2cc3c(n2)-c2ccccc2CC3)cc1` [Compound 161, 4-(4,5-Dihydro-benzo[g]indazol-2-yl)-benzoic acid] had a melting point of 288 to 290 °C.
The same measure for `O=C(O)c1ccc(-n2cc3c(n2)-c2ccccc2OC3)cc1` [Compound 162]: 308 to 310 °C; for `COc1ccc2c(c1)CCc1cn(-c3ccc(C(=O)O)cc3)nc1-2` [Compound 163, 4-(7-Methoxy-4,5-dihydro-benzo[g]indazol-2-yl)-benzoic acid]: 279 to 280 °C.
The same measure for `CN(C)c1cccc(-n2ccc(-c3cccc(C(=O)O)c3)n2)c1` [Compound 164, 3-[1-(3-Dimethylamino-phenyl)-1H-pyrazol-3-yl]-benzoic acid]: 180 to 183 °C.
The same measure for `O=C(O)c1cccc(-c2ccn(-c3cccc(Br)c3)n2)c1` [Compound 165, 3-[1-(3-Bromo-phenyl)-1H-pyrazol-3-yl]-benzoic acid]: 180 to 183 °C; for `Cc1ccc(-n2ccc(-c3cccc(C(=O)O)c3)n2)cc1` [Compound 166, 3-(1-p-Tolyl-1H-pyrazol-3-yl)-benzoic acid]: 192 to 193 °C; for `Cc1cccc(-n2ccc(-c3cccc(C(=O)O)c3)n2)c1` [Compound 167, 3-(1-m-Tolyl-1H-pyrazol-3-yl)-benzoic acid]: 162 to 164 °C.
`O=C(O)c1cccc(-c2ccn(-c3ccc([N+](=O)[O-])cc3)n2)c1` [Compound 168, 3-[1-(4-Nitro-phenyl)-1H-pyrazol-3-yl]-benzoic acid] had a melting point of 280 to 281 °C.
The same measure for `O=C(O)c1cccc(-n2ccc(-c3ccccc3F)n2)c1` [Compound 169, 3-[3-(2-Fluoro-phenyl)-pyrazol-1-yl]-benzoic acid]: 166 to 167 °C.
For the molecule `Cc1ccc(-c2ccn(-c3cccc(C(=O)O)c3)n2)cc1` [Compound 170, 3-(3-p-Tolyl-pyrazol-1-yl)-benzoic acid], the melting point lay in the range of 180 to 182 °C.
The same measure for `COc1cccc(-n2cc(-c3ccc(C(=O)O)cc3)cn2)c1` [Compound 171, 4-[1-(3-Methoxy-phenyl)-1H-pyrazol-4-yl]-benzoic acid]: 211 to 212 °C; for `O=C(O)c1cccc(-c2cnn(-c3cccc(OC(F)F)c3)c2)c1` [Compound 172]: 179 to 181 °C.
`O=C(O)c1ccc(-c2cnn(-c3cccc(OC(F)F)c3)c2)cc1` [Compound 173]: the melting point fell in the range of 255 to 257 °C.
The same measure for `COc1cccc(-n2cc(-c3cccc(C(=O)O)c3)cn2)c1` [Compound 174, 3-[1-(3-Methoxy-phenyl)-1H-pyrazol-4-yl]-benzoic acid]: 156 to 157 °C; for `O=C(O)c1cccc(-c2ccn(-c3cccc(OCc4ccccc4)c3)n2)c1` [Compound 175, 3-[1-(3-Benzyloxy-phenyl)-1H-pyrazol-3-yl]-benzoic acid]: 152 to 153 °C.
On to `O=C(O)c1cccc(-c2ccn(-c3ccc(OCc4ccccc4)cc3)n2)c1` [Compound 176, 3-[1-(4-Benzyloxy-phenyl)-1H-pyrazol-3-yl]-benzoic acid], for which the melting point lay within 210 to 212 °C.
The same measure for `Cc1ccc(-n2cc(-c3cccc(C(=O)O)c3)cn2)cc1` [Compound 177, 3-(1-p-Tolyl-1H-pyrazol-4-yl)-benzoic acid]: 229 to 231 °C; for `Cc1ccc(-n2cc(-c3ccc(C(=O)O)cc3)cn2)cc1` [Compound 178, 4-(1-p-Tolyl-1H-pyrazol-4-yl)-benzoic acid]: 280 to 282 °C.
The molecule `O=C(O)c1cccc(-c2cnn(-c3ccc(F)cc3F)c2)c1` [Compound 179, 3-[1-(2,4-Difluoro-phenyl)-1H-pyrazol-4-yl]-benzoic acid] returned a melting point of 200 to 202 °C.
The same measure for `O=C(O)c1ccc(-c2cnn(-c3ccc(F)cc3F)c2)cc1` [Compound 180, 4-[1-(2,4-Difluoro-phenyl)-1H-pyrazol-4-yl]-benzoic acid]: 258 to 260 °C; for `O=C(O)c1cccc(-c2cnn(-c3ccc(F)cc3)c2)c1` [Compound 181, 3-[1-(4-Fluoro-phenyl)-1H-pyrazol-4-yl]-benzoic acid]: 235 to 237 °C.
The same measure for `O=C(O)c1ccc(-c2cnn(-c3ccc(F)cc3)c2)cc1` [Compound 182, 4-[1-(4-Fluoro-phenyl)-1H-pyrazol-4-yl]-benzoic acid]: 266 to 268 °C; for `O=C(O)c1cccc(-n2cc3c(n2)-c2cccc(OC(F)F)c2CC3)c1` [Compound 183, 3-(6-Difluoromethoxy-4,5-dihydro-benzo[g]indazol-2-yl)-benzoic acid]: 235 to 237 °C; for `COc1cccc2c1Cc1cn(-c3cccc(C(=O)O)c3)nc1-2` [Compound 184, 3-(5-Methoxy-4H-indeno[1,2-c]pyrazol-2-yl)-benzoic acid]: 277 to 278 °C.
The same measure for `O=C(O)c1cccc(-n2cc3c(n2)-c2cccc(OC(F)F)c2C3)c1` [Compound 185, 3-(5-Difluoromethoxy-4H-indeno[1,2-c]pyrazol-2-yl)-benzoic acid]: 240 to 241 °C.
Consider `O=C(O)c1ccc(-n2cc3c(n2)-c2cccc(OC(F)F)c2CC3)cc1` [Compound 186, 4-(6-Difluoromethoxy-4,5-dihydro-benzo[g]indazol-2-yl)-benzoic acid], for which the melting point fell in the range of 282 to 283 °C.
With `COc1cccc2c1Cc1cn(-c3ccc(C(=O)O)cc3)nc1-2` [Compound 187, 4-(5-Methoxy-4H-indeno[1,2-c]pyrazol-2-yl)-benzoic acid], the melting point lay in the range of 311 to 313 °C.
The same measure for `O=C(O)c1ccc(-n2cc3c(n2)-c2cccc(OC(F)F)c2C3)cc1` [Compound 188, 4-(5-Difluoromethoxy-4H-indeno[1,2-c]pyrazol-2-yl)-benzoic acid]: 277 to 278 °C.
The same measure for `COc1ccccc1-n1ccc(-c2ccc(C(=O)O)cc2)c1` [Compound 193]: 200 to 202 °C; for `Cc1cccc(-n2ccc(-c3ccc(C(=O)O)cc3)c2)c1` [Compound 194, 4-(1-m-Tolyl-1H-pyrrol-3-yl)-benzoic acid]: 212 to 213 °C; for `Cc1ccccc1-n1ccc(-c2ccc(C(=O)O)cc2)c1` [Compound 195, 4-(1-o-Tolyl-1H-pyrrol-3-yl)-benzoic acid]: 208 to 209 °C.
`O=C(O)c1ccc(-c2ccn(-c3ccc(Cl)cc3)c2)cc1` [Compound 196, 4-[1-(4-Chloro-phenyl)-1H-pyrrol-3-yl]-benzoic acid] yielded a melting point above 350 °C.
The same measure for `O=C(O)c1ccc(-c2ccn(-c3ccccc3Cl)c2)cc1` [Compound 197, 4-[1-(2-Chloro-phenyl)-1H-pyrrol-3-yl]-benzoic acid]: 200 to 202 °C; for `O=C(O)c1cccc(-c2ccn(-c3ccccc3Cl)c2)c1` [Compound 198, 3-[1-(2-Chloro-phenyl)-1H-pyrrol-3-yl]-benzoic acid]: 198 to 200 °C; for `O=C(O)c1ccc(-c2ccn(-c3ccccc3OC(F)(F)F)c2)cc1` [Compound 199, 4-[1-(2-Trifluoromethoxy-phenyl)-1H-pyrrol-3-yl]-benzoic acid]: 164 to 165 °C.
The molecule `COc1ccccc1-n1ccc(-c2cccc(C(=O)O)c2)c1` [Compound 200, 3-[1-(2-Methoxy-phenyl)-1H-pyrrol-3-yl]-benzoic acid] returned a melting point above 350 °C.
Consider `Cc1ccc(-c2cn(-c3ccc(C(=O)O)cc3)nn2)cc1` [Compound 201, 4-(4-p-Tolyl-[1,2,3]triazol-1-yl)-benzoic acid], for which the melting point lay in the range of 302 to 303 °C.
With `O=C(O)c1ccc(-n2cc(-c3ccc(C(F)(F)F)cc3)nn2)cc1` [Compound 202, 4-[4-(4-Trifluoromethyl-phenyl)-[1,2,3]triazol-1-yl]-benzoic acid], the melting point is 305 to 306 °C.
Molecule `COc1ccc(-c2cn(-c3ccc(C(=O)O)cc3)nn2)cc1` [Compound 203, 4-[4-(4-Methoxy-phenyl)-[1,2,3]triazol-1-yl]-benzoic acid] yielded a melting point of 294 to 295 °C.
The same measure for `COc1cccc(-c2cn(-c3ccc(C(=O)O)cc3)nn2)c1` [Compound 204, 4-[4-(3-Methoxyphenyl)-[1,2,3]triazol-1-yl]benzoic acid]: 276 to 277 °C.
In the case of `O=C(O)c1ccc(-n2cc(-c3ccc4c(c3)OCO4)cn2)cc1` [Compound 205, 4-(4-Benzo[1,3]dioxol-5-yl-pyrazol-1-yl)-benzoic acid], the melting point fell in the range of 286 to 288 °C.
The same measure for `O=C(O)c1ccc(-n2cc(-c3cccc(O)c3)cn2)cc1` [Compound 206, 4-[4-(3-Hydroxy-phenyl)-pyrazol-1-yl]-benzoic acid]: 273 to 275 °C.
On to `O=C(O)c1cccc(-n2cc(-c3cccc(O)c3)cn2)c1` [Compound 207, 3-[4-(3-Hydroxy-phenyl)-pyrazol-1-yl]-benzoic acid], for which the melting point is 272 to 274 °C.
`O=C(O)c1ccc(-n2cc(-c3cccc(OC(F)(F)F)c3)cn2)cc1` [Compound 208, 4-[4-(3-Trifluoromethoxy-phenyl)-pyrazol-1-yl]-benzoic acid] registered a melting point of 225 to 227 °C.
Consider `O=C(O)c1cccc(-n2cc(-c3cccc(OC(F)(F)F)c3)cn2)c1` [Compound 209, 3-[4-(3-Trifluoromethoxy-phenyl)-pyrazol-1-yl]-benzoic acid], for which the melting point was in the range of 166 to 168 °C.
The same measure for `O=C(O)c1cccc(-n2cc(-c3cccc(Cl)c3)cn2)c1` [Compound 210, 3-[4-(3-Chloro-phenyl)-pyrazol-1-yl]-benzoic acid]: 178 to 180 °C; for `O=C(O)c1ccc(-n2cc(-c3cccc(Cl)c3)cn2)cc1` [Compound 211, 4-[4-(3-Chloro-phenyl)-pyrazol-1-yl]-benzoic acid]: 252 to 255 °C.
